Results: PMC10176470, “Engaging a Non-catalytic Cysteine Residue Drives Potent and Selective Inhibition of Caspase-6” (Journal of the American Chemical Society, 2023)

Experiments:
Format in all cases: cell-based
[1] = target: T1, proteins of HEK293T cells transiently overexpressing caspase-6 (Homo sapiens, UniProt P09622)
T1 sequence (P09622 36-509): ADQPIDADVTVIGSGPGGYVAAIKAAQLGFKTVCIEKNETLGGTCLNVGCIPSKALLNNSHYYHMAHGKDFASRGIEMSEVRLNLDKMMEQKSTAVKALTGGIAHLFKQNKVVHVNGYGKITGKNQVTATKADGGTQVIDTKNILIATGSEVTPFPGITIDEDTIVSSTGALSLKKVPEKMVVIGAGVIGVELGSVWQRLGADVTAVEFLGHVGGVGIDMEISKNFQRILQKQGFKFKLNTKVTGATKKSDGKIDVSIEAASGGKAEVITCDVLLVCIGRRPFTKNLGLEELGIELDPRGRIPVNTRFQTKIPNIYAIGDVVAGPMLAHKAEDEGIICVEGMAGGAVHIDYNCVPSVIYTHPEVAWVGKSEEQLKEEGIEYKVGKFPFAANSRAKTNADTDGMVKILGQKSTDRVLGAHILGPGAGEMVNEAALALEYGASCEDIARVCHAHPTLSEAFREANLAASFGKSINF

[2] = target: proteins of HEK293T cells transiently overexpressing caspase-6 (Homo sapiens, UniProt P14314); details: Probe; protein PRKCSH P14314
[3] = target: proteins of HEK293T cells transiently overexpressing caspase-6 (Homo sapiens, UniProt P46779); details: exp_ref Probe; protein RPL28 (P46779); analysis C6
[4] = target: proteins of HEK293T cells transiently overexpressing caspase-6 (Homo sapiens, UniProt P50991); details: exp_ref Probe; protein CCT4 (P50991); analysis C6
[5] = target: T2, proteins of HEK293T cells transiently overexpressing caspase-6 (Homo sapiens, UniProt P55060); details: protein CSE1L (P55060)
T2 sequence (P55060 1-971): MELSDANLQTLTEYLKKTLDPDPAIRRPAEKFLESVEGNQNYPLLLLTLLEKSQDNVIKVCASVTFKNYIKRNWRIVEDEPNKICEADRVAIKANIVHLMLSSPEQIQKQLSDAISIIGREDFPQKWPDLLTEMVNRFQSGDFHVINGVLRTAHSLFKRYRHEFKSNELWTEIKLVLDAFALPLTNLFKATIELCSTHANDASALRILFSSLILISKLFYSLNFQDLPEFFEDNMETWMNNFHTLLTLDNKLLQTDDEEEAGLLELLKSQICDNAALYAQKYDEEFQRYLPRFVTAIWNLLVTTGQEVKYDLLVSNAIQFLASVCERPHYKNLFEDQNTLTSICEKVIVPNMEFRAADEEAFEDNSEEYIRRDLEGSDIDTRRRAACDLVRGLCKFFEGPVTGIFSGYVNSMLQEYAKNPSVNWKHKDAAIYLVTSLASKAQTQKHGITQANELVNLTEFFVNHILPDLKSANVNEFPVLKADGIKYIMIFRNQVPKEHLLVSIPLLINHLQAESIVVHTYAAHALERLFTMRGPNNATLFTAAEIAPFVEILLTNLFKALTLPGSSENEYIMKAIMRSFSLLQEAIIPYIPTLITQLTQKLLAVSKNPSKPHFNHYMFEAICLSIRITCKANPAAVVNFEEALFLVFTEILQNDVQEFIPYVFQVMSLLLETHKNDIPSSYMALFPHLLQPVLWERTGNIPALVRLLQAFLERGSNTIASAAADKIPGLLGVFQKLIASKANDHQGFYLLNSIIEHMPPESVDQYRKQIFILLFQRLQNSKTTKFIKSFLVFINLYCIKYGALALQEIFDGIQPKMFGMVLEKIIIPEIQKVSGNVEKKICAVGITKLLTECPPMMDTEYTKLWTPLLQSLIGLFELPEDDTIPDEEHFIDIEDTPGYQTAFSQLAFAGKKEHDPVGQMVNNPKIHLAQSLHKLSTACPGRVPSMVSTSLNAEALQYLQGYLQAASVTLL

[6] = target: proteins of HEK293T cells transiently overexpressing caspase-6 (Homo sapiens, UniProt P62249); details: exp_ref Probe; protein RPS16 (P62249); analysis C6
[7] = target: proteins of HEK293T cells transiently overexpressing caspase-6 (Homo sapiens, UniProt P62424); details: exp_ref Probe; protein RPL7A (P62424); analysis C6
[8] = target: proteins of HEK293T cells transiently overexpressing caspase-6 (Homo sapiens, UniProt P63261); details: exp_ref Probe; protein ACTG1 (P63261); analysis C6
[9] = target: T3, proteins of HEK293T cells transiently overexpressing caspase-6 (Homo sapiens, UniProt Q02978); details: protein SLC25A11 (Q02978), analysis C6
T3 sequence (Q02978 1-314): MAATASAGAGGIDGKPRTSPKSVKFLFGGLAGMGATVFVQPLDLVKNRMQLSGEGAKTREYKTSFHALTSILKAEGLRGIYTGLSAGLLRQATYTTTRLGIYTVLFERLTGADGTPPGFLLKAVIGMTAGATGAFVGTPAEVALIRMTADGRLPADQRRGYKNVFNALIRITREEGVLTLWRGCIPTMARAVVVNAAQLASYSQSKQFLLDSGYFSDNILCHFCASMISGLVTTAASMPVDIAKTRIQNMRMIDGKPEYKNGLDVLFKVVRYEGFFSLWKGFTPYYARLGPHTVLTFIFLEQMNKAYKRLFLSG

[10] = target: proteins of HEK293T cells transiently overexpressing caspase-6 (Homo sapiens, UniProt Q9Y230); details: protein RUVBL2 (Q9Y230); exp_ref Probe; analysis C6
proteins of HEK293T cells transiently overexpressing caspase-6 (Homo sapiens, UniProt Q9Y230), sequence (Q9Y230 whole entry): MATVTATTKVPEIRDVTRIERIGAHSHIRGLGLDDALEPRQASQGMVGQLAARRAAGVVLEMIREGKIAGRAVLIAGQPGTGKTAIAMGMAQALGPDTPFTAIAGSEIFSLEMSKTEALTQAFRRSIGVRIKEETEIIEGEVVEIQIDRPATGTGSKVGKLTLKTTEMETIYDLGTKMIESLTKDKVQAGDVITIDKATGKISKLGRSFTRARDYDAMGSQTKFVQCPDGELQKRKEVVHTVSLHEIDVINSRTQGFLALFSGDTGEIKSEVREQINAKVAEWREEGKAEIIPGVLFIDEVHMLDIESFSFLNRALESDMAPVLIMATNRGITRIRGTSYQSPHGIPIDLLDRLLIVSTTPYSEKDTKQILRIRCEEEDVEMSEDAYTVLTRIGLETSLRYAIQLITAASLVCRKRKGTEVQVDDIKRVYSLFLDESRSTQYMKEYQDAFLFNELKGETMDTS

proteins of HEK293T cells transiently overexpressing caspase-6 (Homo sapiens, UniProt P14314), sequence (P14314 15-528): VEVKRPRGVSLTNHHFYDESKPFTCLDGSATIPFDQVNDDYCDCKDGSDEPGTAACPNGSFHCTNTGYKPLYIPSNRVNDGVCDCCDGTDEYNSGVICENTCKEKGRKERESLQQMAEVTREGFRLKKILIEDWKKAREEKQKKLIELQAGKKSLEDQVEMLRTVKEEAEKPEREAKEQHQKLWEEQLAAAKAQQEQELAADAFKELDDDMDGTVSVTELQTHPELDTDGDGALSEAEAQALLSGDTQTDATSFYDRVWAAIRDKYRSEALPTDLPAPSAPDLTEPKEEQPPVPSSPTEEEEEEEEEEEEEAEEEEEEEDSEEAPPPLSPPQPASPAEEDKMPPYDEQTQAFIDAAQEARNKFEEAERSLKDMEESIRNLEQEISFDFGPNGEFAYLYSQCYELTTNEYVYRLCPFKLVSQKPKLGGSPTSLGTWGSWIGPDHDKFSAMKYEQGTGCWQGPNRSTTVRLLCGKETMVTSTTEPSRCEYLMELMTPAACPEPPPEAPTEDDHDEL
proteins of HEK293T cells transiently overexpressing caspase-6 (Homo sapiens, UniProt P50991), sequence (P50991 whole entry): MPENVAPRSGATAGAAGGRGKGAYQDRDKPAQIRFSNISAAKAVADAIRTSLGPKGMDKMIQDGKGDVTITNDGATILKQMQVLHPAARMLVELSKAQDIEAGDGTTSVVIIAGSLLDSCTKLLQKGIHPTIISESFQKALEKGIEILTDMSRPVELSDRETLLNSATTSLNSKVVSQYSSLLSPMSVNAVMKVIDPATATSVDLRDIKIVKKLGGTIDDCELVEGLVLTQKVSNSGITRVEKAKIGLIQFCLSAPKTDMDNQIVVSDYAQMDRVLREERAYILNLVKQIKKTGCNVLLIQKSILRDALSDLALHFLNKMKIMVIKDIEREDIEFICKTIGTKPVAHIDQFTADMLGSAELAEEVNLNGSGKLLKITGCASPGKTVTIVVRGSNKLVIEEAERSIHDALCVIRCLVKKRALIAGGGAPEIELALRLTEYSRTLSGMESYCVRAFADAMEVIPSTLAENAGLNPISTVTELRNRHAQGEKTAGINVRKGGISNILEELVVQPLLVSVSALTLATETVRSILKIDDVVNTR

## C#CCOc1ccc([C@@H]2C[C@@H](C(=O)Nc3ccc(OC(F)(F)F)cc3)CN(S(=O)(=O)C=C)C2)cc1 (relative stereo) [13-t]
[1]; Probe, protein DLD P09622
  enrich.exp.med: -1.39
[1]; protein DLD (P09622)
  enrich.exp.med.lin: 0.3817
  enrich.exp.med.log2: -1.39
[2]
  enrich.exp.med: -0.8366
[3]
  enrich.exp.med: -0.3003
[4]
  enrich.exp.med: 0.3881
[5]; exp_ref Probe, analysis C6
  enrich.exp.med: 1.237
[5]
  enrich.exp.med.lin: 2.357
  enrich.exp.med.log2: 1.237
[6]
  enrich.exp.med: -0.2776
[7]
  enrich.exp.med: 0.8961
[8]
  enrich.exp.med: 0.6252
[9]; Expt Probe
  enrich.exp.med.lin: 7.305
  enrich.exp.med.log2: 2.869
[9]; exp_ref Probe
  enrich.exp.med: 2.869
[10]
  enrich.exp.med: 1.2493
